Target: human LPA1 (Homo sapiens, UniProt Q92633)
Assay: In-vitro whole cell binding: competition with the ^18F tracer
Conditions: CHO cells overexpressing human LPA1; ^18F tracer 3.8 nM; room temperature 1 hr; read-out: IC50, inhibition of binding of the ^18F tracer
Procedure: The effectiveness of compounds of the present invention as LPA1 inhibitors can be determined in an LPA1 binding assay as follows: Chinese hamster ovary cells overexpressing human LPA1 were maintained in F12 medium (Gibco #11765) supplemented with 10% fetal bovine serum and 1 mg/ml hygromycin (Invitrogen #10687-010). On day of assay, 150 cm^2 flasks of subconfluent cells were harvested with TripLE Express Dissociation reagent (Gibco #12605-010), counted, centrifuged, and resuspended in ice-cold Binding Assay Buffer (BAB: 50 mM HEPES pH 7.2, 100 mM NaCl, 2 mM EDTA) at 2×10^6 cells per ml. Cells were kept on ice until use. Test compound dilution plates were prepared by serially diluting test compounds (2 mM stock in 100% DMSO, […] dilutions) in DMSO, then diluting 1:50 in BAB to generate twelve half-log test concentrations at 4× final concentration. Binding assay were carried out in non-binding surface 96-well plates (Corning #3605) at room temperature for 1 hour. […] Individual filter discs were cut out of the filter plate and counted in a gamma counter. IC50 values were determined by fitting the data to a 4-parameter logistic equation (GraphPad Prism, San Diego Calif.).

Chain of human LPA1 (Q92633 whole entry): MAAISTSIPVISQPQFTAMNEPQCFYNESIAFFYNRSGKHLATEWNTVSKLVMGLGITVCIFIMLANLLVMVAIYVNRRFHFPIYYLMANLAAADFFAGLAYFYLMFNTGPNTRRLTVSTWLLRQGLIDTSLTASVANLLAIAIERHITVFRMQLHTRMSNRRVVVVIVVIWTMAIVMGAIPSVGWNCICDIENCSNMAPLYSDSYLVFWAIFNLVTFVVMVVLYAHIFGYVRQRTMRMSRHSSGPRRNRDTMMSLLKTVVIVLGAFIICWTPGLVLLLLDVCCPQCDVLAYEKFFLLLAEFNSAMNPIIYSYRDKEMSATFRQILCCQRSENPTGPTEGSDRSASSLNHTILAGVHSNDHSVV

Cc1nc(-c2nnn(C)c2COC(=O)N(C)CCCCF)ccc1O[C@H]1CCC[C@H](C(=O)O)C1 [Example 14]
IC50: 0.0245 µM

Source: US20210379210A1, “RADIOLIGANDS FOR IMAGING THE LPA1 RECEPTOR” (BRISTOL-MYERS SQUIBB COMPANY, priority 2018, published 2021)
